{"source": "BindingDB's records for doi:10.1021/acs.jmedchem.7b00155", "about": "(University of Bari Aldo Moro, 2017)", "molecular_target": "Cannabinoid receptor 1 (Homo sapiens, UniProt P21554)", "sequence (P21554 whole entry)": "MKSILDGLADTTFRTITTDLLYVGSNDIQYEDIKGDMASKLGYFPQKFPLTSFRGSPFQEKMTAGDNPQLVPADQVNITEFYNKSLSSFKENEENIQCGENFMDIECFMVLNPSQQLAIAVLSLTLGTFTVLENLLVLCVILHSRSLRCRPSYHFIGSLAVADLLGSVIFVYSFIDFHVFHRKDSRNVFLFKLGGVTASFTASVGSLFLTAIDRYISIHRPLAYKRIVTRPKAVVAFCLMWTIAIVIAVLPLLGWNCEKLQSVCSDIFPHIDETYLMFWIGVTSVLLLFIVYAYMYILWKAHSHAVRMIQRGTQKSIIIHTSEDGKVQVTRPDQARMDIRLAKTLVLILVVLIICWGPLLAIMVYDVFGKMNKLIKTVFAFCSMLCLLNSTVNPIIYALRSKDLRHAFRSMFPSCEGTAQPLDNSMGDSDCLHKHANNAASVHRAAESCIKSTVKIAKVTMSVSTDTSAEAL", "assay": "ChEBML_1680109", "text": "Agonist activity at human CB1 receptor expressed in mouse AtT-20 cells co expressing GIRK by FLIPR assay", "data": [{"compound": "CC(C)[C@H](NC(=O)c1nn(Cc2ccc(F)cc2)c2ccccc12)C(N)=O", "values": [{"measurement": "EC50", "value": 2.1, "unit": "nM"}]}]}
